Values of other authors in patent US8148152B2, “Method for the preparation of embryoid bodies (EBs) and uses thereof” (Axiogenesis AG, priority 2003, dated 2012).

Legend:
[1] = system: EBs from mouse embryonic stem cells (clone D3, pαMHC-GFP); details: test compounds with known embryotoxic potential from ECVAM list; 10^-8 to 10^-5 M; fluorescence on day 14 as percent of control (0.1% DMSO); data only in FIG. 5
[2] = system: ES cell-derived cardiomyocytes; details: test compounds with known cardiotoxic potential; added on day 14, effect on fluorescent areas during 72 hours; data only in FIG. 6

| Structure (SMILES) | embryotoxic potential (classification of test compound) [1] | cardiotoxic potential (classification of test compound) [2] |
| --- | --- | --- |
| CN(Cc1cnc2nc(N)nc(N)c2n1)c1ccc(C(=O)N[C@@H](CCC(=O)O)C(=O)O)cc1 [methotrexate] | strong embryotoxic |  |
| C[C@@H]1C[C@H]2[C@@H]3CCC4=CC(=O)C=C[C@]4(C)[C@@]3(F)[C@@H](O)C[C@]2(C)[C@@]1(O)C(=O)CO [dexamethasone] |  | non cardiotoxic |
| CCCC(CCC)C(=O)O [valproic acid] | weak embryotoxic |  |
| COc1cccc2c1C(=O)c1c(O)c3c(c(O)c1C2=O)C[C@@](O)(C(=O)CO)C[C@@H]3O[C@H]1C[C@H](N)[C@H](O)[C@H](C)O1 [doxorubicine] |  | cardiotoxic |
| COC(=O)c1ccccc1C(=O)OC [dimethylphtalate] | non-embryotoxic |  |
